Test results as given in US9360471B2, “Anti-aging agents and methods to identify them” (priority 2009, dated 2016).

Tests used:
human lymphoblastoid L40 = assay: mitochondrial mass in human lymphoblastoid L40, MitoTracker Green FM and FACS; assay type: cell-based; conditions: 2-day treatment; 10 μM LY294002, 2 μM DATS, 1 μM BITC, 1 μM PITC, 2 μg/mL resveratrol, 0.03 μM lycopene, 6.7 μM PEITC, 5 mM silibinin, 1.25 mM selenite, 2.5 mM genistein, 250 μg/mL GSE, 50 μg/mL EGCG, 3 mg/mL bilberry extract, 1 μM AITC, 50 pM rapamycin, 250 μM AICAR
Description: Mitochondrial mass was monitored by staining the 60% Ethanol-fixed cells with MitoTracker Green FM prior to FACS analysis.

NIH3T3 cells [1] = assay: mitochondrial mass in NIH3T3 cells treated with TPA; assay type: cell-based, mouse; conditions: 10 μM TPA+40 μM AICAR, two days
Protocol: NIH3T3 cells were incubated in DMEM medium (DMEM with 10% FCS, 100 units/mL penicillin, 100 μg/mL streptomycin and 2 mM glutamine) in the presence of control DMSO, 10 μM TPA, 1 nM rapamycin, 10 μM TPA+1 nM rapamycin, 40 μM AICAR, or 10 μM TPA+40 μM AICAR at 37° C. in a humidified atmosphere consisting of 95% air and 5% CO2 for two days. Cells were then harvested by trypsin and fixed by 60% ethanol. The cells were stained with MitoTracker Greeen FM in darkness for 30 min prior to FACS analysis. The data represents the average of a triplica-experiment.

NIH3T3 cells [2] = assay: TPA-induced transformation of NIH3T3 cells, colony formation in soft agar; assay type: cell-based, mouse; conditions: 10 μM TPA + AICAR (40 μM)
Protocol: (A) TPA (10 μM) was incubated with NIH3T3 cells in 0.39% soft agar in the presence of DMSO, 1 nM rapamycin, or 250 nM AICAR, and cultured for 7 days prior to counting colonies under a microscope. (B) The data represents the average of four experiments.
The experiment was done as in Example 19. In brief, 1500 NIH3T3 cells were mixed with 50 μL, of 0.4% agarose in culture medium (basal medium with 10% bovine fetal serum), layered on 96-well plates pre-covered with 50 μL of 0.8% agarose in culture medium. 100 μL of culture medium containing drugs to make final DMSO, 10 μM TPA, 40 μM AICAR, or 10 μM TPA+[…] was then added into the wells. The cells were incubated in a 37° C. incubator with 5% CO2 for more than 7 days. 50 μL of fresh medium was added every 5 days. Colonies were then counted under a microscope.
Transformation of NIH 3T3 cells is a good in vitro tumorigenesis assay, which measures colony formation in soft agar (termed as anchorage-independent growth). The […] TPA (12-O-Tetradecanoylphorbol 13-acetate) is known to stimulate protein kinase C (PKC), activate oncogenes and transform mouse embryonic fibroblast NIH3T3 cells. The TPA-induced anchorage-independent growth of NIH3T3 cell was employed as a tumorigenesis assay. […] Colonies were then counted under a microscope. […]

[3] = tested on: senescent WI-38 cells (human primary fibroblast); assay: loss of senescent WI-38 cells, β-galactosidase (X-gal) staining; assay type: cell-based; conditions: 56 days in senescence; 50 pM rapamycin, 250 μM AICAR, 20 μg/mL EGCG, 1.6 μg/mL GSE, 20 μg/mL bilberry extract, 1 μM AITC, 12.5 μM 2-deoxyglucose; 3-day-on/7-day-off (AICAR 2-day-on/8-day-off)
Protocol: AICAR and reduced glucose treatment were incubated with cells in a 2-day-on/8-day-off cycle, while the rest of agents were in a 3-day-on/7-day-off cycle. The treatment started at passage 29. The medium was refreshed every 3 days. After 56-days from passage 31 (senescence), the cells were briefly fixed in 2% formaldehyde/0.2% glutaraldehyde and stained with 1 mg/mL 5-bromo-4-chloro-3-indolyl β-D-galactoside (X-gal) (in buffer containing 40 mM citric acid/sodium phosphate, pH 6.0, 5 mM potassium ferrocyanide, 5 mM potassium ferricyanide, 150 mM NaCl, and 2 mM MgCl2) at 37° C. for 18 hrs for the senescence marker, cellular β-galactosidase activity (blue in color picture and dark grey in black/white picture). Surviving senescent cells were viewed under a microscope.
This invention discloses that CR or rapamycin also prolongs senescence and prevents cell death induced by telomere dysfunction in human cells. Primary human embryonic lung fibroblasts WI-38 were used. […] Cells at passage 29 were treated with 50 pM rapamycin. The treatment was on a 10-day cycle of 3-day with and 7-day without rapamycin (also termed as 3-day-on/7-day-off cycle). […] Due to increased cytosol β-galactosidase activity, senescent cells are stained a blue color (shown as dark grey in black/white picture). […] Rapamycin didn't transform cells since the senescence marker was still present and cell growth was not observed.

WI-38 cells = assay: MPP+ induced ROS in WI-38 cells, dehydrorhodamine 123 and FACS; assay type: cell-based, human; conditions: 200 μM MPP^+, 3 days
Protocol: MPP+ with various concentrations of rapamycin was incubated with WI-38 cells for 3 days. Cells were stained with dehydrorhodamine 123 in the dark for 30 min prior to FACS analysis.
MPP^+, an inhibitor of complex I (NADH CoQ1 reductase) in the mitochondrial respiratory chain, is a dopaminergic neurotoxin. It is commonly used to induce Parkinson's disease in […]. Human primary fibroblast WI-38 cells were treated with 200 μM MPP^+ for 3 days. Cells were then stained with dehydrorhodamine 123 in the dark for 30 min. Cells were then analyzed by FACS.

NC(=O)c1ncn([C@@H]2O[C@H](CO)[C@@H](O)[C@H]2O)c1N [AICAR, 5-aminoimidazole-4-carboxamide-1-beta-D-ribofuranoside, reference compound]
mitochondrial mass (human lymphoblastoid L40): increased | mitochondrial mass decrease induced by TPA (NIH3T3 cells [1]): reverses the decrease in mitochondrial mass | anchorage-independent growth of NIH3T3 cells induced by TPA (NIH3T3 cells [2]): inhibits the anchorage-independent growth | loss of the senescent WI-38 cells [3]: prevented

C[n+]1ccc(-c2ccccc2)cc1 [MPP^+]
ROS level in WI-38 cells (WI-38 cells): greatly increased ROS level
